Among the data in patent US20230321123A1, “INHIBITORS OF PSEUDOMONAS AERUGINOSA VIRULENCE FACTOR LasB” (Helmholtz-Zentrum Für Infektionsforschung GmbH, priority 2020, published 2023) are inhibition, IC50 and MIC values, retold here.

Broadly, the inhibition is the relative decrease from the control value, in per cent. As a reminder, the IC50 is the midpoint of a concentration-inhibition curve. Usually MIC stands for the lowest concentration that inhibits growth of the organism.

Data set [1] addresses T1, MMP-7 (Homo sapiens, UniProt P09237).
T1 sequence (P09237 95-267): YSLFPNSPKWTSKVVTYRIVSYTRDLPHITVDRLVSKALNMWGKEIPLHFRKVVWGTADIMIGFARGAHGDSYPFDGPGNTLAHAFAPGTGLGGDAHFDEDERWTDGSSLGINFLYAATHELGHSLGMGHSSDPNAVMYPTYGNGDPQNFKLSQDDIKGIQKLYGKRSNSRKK
The data set can be described thus: Selectivity against human off-targets: MMP-7. As to conditions: read-out: Inhibition [%] MMP-7. It is filed as biochemical. The source says:
(§1) The inhibition of zinc-containing human enzymes is described frequently for LasB inhibitors and poses a serious difficulty in the development of selective compounds. Particularly, the inhibition of matrix metalloproteases (MMPs) should be avoided. To further investigate this issue, three derivatives (the compounds of examples 1, 5 and 8) have been tested for their selectivity against several human off-targets, including six MMPs, ADAM17 (TACE), HDAC-3 and HDAC-8 (Table 4). The selectivity of the compounds is particularly high for MMPs and HDACs, whereas the inhibition of ADAM17 was considerably stronger.

For data set [2], the target named is MMP-3 (Homo sapiens, UniProt P08254). The data set can be described thus: Selectivity against human off-targets: MMP-3. In kind it is biochemical. As to conditions: read-out: Inhibition [%] MMP-3.
Sequence of MMP-3 (P08254 100-477): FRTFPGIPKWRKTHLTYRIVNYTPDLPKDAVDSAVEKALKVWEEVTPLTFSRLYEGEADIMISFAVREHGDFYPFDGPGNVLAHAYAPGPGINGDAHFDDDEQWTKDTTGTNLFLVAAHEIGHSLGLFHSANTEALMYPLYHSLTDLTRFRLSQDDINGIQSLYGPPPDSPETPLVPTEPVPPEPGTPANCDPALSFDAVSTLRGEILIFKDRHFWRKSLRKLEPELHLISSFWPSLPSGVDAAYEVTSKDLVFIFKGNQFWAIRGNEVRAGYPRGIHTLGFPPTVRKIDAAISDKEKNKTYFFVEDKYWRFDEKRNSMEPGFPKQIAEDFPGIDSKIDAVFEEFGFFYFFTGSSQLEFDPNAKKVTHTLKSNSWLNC
Source text: as §1

Data set [3] is described as follows: Cytotoxicity HEK293. As to conditions: human. In kind it is cell-based. On the procedure: (§2) The compounds of examples 1 and 5 were not toxic against the cell lines HepG2, HEK293 and A549 (Table 5). Additionally, the inhibitory effect against P. aeruginosa PA14 was evaluated to exclude an antibacterial effect of the compounds of the present invention. This is important as it was the aim to target virulence and not viability of the bacteria. […]

Data set [4] has as its target T2, HDAC-8 (Homo sapiens, UniProt Q9BY41).
T2 sequence (Q9BY41 1-377): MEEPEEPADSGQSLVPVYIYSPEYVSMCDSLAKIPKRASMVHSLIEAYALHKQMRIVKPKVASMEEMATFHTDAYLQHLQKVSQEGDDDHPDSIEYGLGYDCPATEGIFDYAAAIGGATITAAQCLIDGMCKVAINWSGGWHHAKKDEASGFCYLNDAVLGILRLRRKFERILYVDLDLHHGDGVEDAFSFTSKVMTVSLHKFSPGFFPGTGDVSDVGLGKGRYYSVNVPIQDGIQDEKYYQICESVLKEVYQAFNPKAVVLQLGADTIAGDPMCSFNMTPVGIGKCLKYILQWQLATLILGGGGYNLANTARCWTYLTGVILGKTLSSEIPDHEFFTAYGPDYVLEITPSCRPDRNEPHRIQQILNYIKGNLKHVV
The data set can be described thus: Selectivity against human off-targets: HDAC-8. It is filed as biochemical.
Source text: as §1

Data set [5] has as its target HDAC-3 (Homo sapiens, UniProt O15379). The data set can be described thus: Selectivity against human off-targets: HDAC-3. In kind it is biochemical.
Source text: as §1

Data set [6] deals with P. aeruginosa PA14. Kind of data set: PA14 inhibition (MIC, antibacterial effect). In kind it is cell-based. On the procedure:
as §2

The target of data set [7] is T3, MMP-1 (Homo sapiens, UniProt P03956).
T3 sequence (P03956 100-469): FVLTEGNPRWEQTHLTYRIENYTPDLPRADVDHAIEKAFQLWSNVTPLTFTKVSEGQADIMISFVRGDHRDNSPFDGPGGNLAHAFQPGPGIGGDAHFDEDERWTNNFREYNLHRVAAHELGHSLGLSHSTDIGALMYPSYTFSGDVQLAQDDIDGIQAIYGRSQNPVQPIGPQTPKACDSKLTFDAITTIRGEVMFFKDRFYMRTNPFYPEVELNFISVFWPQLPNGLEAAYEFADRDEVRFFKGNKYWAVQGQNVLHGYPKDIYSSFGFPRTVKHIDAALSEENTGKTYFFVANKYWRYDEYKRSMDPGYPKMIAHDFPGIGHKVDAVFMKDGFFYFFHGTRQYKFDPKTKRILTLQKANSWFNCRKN
Kind of data set: Selectivity against human off-targets: MMP-1. It is filed as biochemical. The note with it: read-out: Inhibition [%] MMP-1.
Source text: as §1

Data set [8] in a line: Cytotoxicity HepG2. It is filed as cell-based. The note with it: human. The procedure: as §2
Data set [9] addresses MMP-14 (Homo sapiens, UniProt P50281). The data set can be described thus: Selectivity against human off-targets: MMP-14. In kind it is biochemical. The note with it: read-out: Inhibition [%] MMP-14.
Source text: as §1

Data set [10] addresses LasB (Pseudomonas aeruginosa, UniProt Q02RJ6). Kind of data set: biochemical. Details: species or system P. aeruginosa.
A short description of data set [11]: Cytotoxicity A549. It is filed as cell-based. The note with it: human. On the procedure: as §2
For data set [12], the target named is MMP-8 (Homo sapiens, UniProt P22894). Kind of data set: Selectivity against human off-targets: MMP-8. As to conditions: read-out: Inhibition [%] MMP-8. In kind it is biochemical.
Sequence of MMP-8 (P22894 101-467): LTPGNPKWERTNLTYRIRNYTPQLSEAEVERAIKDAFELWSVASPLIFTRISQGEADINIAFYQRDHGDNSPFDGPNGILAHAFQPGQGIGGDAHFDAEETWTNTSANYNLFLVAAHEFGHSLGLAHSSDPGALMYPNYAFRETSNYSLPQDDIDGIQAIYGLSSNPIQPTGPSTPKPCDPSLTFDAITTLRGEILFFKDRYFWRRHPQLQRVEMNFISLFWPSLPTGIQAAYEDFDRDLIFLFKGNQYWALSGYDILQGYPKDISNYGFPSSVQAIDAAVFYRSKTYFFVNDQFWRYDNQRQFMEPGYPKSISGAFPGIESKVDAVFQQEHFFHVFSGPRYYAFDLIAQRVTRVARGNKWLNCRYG
Source text: as §1

The target of data set [13] is ADAM17 (TACE) (Homo sapiens, UniProt P78536). Kind of data set: Selectivity against human off-targets: ADAM17 (TACE). In kind it is biochemical.
Sequence of ADAM17 (TACE) (P78536 215-824): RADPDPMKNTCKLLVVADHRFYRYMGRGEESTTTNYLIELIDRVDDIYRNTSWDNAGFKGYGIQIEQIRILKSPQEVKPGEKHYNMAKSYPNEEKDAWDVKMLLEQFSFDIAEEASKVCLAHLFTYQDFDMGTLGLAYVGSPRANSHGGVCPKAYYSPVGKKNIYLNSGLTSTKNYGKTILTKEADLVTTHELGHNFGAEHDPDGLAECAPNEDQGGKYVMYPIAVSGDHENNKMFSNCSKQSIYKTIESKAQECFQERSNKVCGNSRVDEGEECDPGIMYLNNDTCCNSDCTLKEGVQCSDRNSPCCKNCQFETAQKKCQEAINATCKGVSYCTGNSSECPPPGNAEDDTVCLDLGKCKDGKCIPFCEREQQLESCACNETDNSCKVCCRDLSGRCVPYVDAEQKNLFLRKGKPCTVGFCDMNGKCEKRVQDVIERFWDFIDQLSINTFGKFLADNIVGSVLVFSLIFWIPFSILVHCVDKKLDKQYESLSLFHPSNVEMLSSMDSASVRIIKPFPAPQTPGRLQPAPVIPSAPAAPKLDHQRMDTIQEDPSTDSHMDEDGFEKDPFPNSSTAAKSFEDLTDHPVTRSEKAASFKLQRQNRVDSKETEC
Data set [14] deals with T4, MMP-2 (Homo sapiens, UniProt P08253).
T4 sequence (P08253 110-660): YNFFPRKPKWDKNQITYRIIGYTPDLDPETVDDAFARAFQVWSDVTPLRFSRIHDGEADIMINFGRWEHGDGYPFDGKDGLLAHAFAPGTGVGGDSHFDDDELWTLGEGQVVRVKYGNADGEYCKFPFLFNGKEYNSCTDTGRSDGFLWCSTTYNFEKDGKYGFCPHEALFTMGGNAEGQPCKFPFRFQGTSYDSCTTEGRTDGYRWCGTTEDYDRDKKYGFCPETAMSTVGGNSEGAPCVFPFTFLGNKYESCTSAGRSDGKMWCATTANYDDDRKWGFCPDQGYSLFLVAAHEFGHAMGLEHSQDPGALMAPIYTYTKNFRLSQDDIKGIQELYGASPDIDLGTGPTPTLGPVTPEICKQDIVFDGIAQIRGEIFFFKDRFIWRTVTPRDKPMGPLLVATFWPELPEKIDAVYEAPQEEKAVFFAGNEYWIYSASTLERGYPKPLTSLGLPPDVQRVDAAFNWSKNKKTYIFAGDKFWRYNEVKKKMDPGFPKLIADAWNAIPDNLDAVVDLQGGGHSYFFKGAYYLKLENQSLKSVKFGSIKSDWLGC
Kind of data set: Selectivity against human off-targets: MMP-2. In kind it is biochemical. As to conditions: read-out: Inhibition [%] MMP-2.
Source text: as §1

Data set [15] addresses COX-1 (Homo sapiens, UniProt P23219). Kind of data set: Selectivity against off-targets: COX-1. It is filed as biochemical.
Setting [16] is: Pseudomonas aeruginosa, PA14; read-out: MIC PA14.

Read-outs that look alike come from different tables or passages of the source.

Sequence of LasB (Q02RJ6 198-498): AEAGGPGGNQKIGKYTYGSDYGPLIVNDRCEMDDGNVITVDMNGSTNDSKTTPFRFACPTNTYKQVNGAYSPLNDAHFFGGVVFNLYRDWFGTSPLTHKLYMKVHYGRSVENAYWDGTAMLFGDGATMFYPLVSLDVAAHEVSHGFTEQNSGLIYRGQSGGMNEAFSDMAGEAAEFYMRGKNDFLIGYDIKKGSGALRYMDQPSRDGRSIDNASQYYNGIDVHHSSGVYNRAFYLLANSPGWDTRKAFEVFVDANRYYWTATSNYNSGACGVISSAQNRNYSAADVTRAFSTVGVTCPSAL
Sequence of HDAC-3 (O15379 whole entry): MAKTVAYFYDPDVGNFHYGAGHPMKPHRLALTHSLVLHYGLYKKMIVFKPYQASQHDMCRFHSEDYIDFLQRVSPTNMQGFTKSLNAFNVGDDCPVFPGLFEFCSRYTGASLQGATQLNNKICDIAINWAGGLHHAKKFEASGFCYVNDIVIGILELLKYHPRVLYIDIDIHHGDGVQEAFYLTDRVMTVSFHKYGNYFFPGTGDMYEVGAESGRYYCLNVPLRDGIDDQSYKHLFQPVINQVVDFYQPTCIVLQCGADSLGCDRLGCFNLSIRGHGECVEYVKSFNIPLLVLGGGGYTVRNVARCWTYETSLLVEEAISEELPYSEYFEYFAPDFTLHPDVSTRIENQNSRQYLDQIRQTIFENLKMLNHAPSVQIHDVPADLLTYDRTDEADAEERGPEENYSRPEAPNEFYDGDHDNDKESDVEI
Sequence of HDAC-3 (Q9Y618 395-489 partner limits assumed): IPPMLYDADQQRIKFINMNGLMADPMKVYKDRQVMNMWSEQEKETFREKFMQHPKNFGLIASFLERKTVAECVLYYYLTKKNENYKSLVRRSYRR
Sequence of COX-1 (P23219 24-599): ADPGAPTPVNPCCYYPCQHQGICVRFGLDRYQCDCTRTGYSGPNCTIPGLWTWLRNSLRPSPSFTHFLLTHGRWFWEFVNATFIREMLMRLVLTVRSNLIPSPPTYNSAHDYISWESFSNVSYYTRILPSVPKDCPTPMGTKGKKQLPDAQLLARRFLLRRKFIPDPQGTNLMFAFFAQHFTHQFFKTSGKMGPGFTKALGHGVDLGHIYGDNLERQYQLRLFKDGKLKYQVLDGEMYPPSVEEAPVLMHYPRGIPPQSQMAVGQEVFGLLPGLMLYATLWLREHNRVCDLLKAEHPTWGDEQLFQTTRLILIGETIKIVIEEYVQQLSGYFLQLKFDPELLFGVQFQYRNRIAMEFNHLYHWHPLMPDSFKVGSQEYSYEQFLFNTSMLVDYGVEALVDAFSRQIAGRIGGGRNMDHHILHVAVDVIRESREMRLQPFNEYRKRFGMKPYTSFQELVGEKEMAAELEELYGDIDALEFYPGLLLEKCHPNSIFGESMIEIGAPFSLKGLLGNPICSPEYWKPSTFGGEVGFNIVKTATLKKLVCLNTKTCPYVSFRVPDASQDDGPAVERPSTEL

For the compound `Cc1ccc(NC(=O)C(CC(C)C)P(=O)(O)O)cc1` (centres unmarked) [Example 63, (4-Methyl-1-oxo-1-(p-tolylamino)pentan-2-yl)phosphonic acid], the inhibition at 100 µM in data set [1] (at 100 μM) is under 10%; in data set [2] (at 100 μM) it was under 10%; in [7] (at 100 μM) it was under 10%; in data set [9] (at 100 μM), 12 ± 7%; in [12] (at 100 μM), 10%; in data set [14] (at 100 μM), under 10%. Further, the 50% inhibitory concentration (IC50) in data set [3] (HEK293 cells) was over 100 µM; in [4], over 100 µM; in data set [5], over 100 µM; in data set [8] (HepG2 cells), over 100 µM; in [10] (IC50 against LasB), 0.051 ± 0.007 µM; in data set [11] (A549 cells) it was over 100 µM. In addition, the half-maximal inhibitory concentration (IC50) in data set [13] was over 100 µM. Moreover, the MIC in [6] (setting [16]) was over 100 µM.

Consider `O=C(Nc1ccccc1)C(S)Cc1ccccc1` (racemic) [Example 1, 2-Mercapto-N,3-diphenylpropanamide], for which the inhibition at 100 µM is under 10% in data set [1]; under 10% in [2]; under 10% in [7]; under 10% in data set [9]; 34 ± 11% in data set [12]; under 10% in [14]. In addition, the half-inhibitory concentration (IC50) was over 100 µM in data set [3] (HEK293); over 100 µM in data set [4] (read-out: IC50 HDAC-8); over 100 µM in [5] (read-out: IC50 HDAC-3); over 100 µM in data set [8] (HepG2); 1.2 ± 0.1 µM in data set [10] (IC50 against LasB); over 100 µM in [11] (A549). Besides, in data set [13] (read-out: IC50 ADAM17 (TACE)), the 50% inhibitory concentration (IC50) came to 2.2 ± 0.1 µM. The MIC in [6] (Pseudomonas aeruginosa, PA14, read-out: MIC PA14) was over 100 µM.

With `CC(C)CC(C(=O)N[C@H](c1cn(-c2ccc(Cl)c(Cl)c2)nn1)C(C)C)P(=O)(O)O` (mixture of isomers) [Example 170, (1-(((S)-1-(1-(3,4-dichlorophenyl)-1H-1,2,3-triazol-4-yl)-2-methylpropyl)amino)-4-methyl-1-oxopentan-2-yl)phosphonic acid], the inhibition at 100 µM in data set [2] (at 100 μM) was under 10%; in [15], under 10%; in data set [7] (at 100 μM), 11%; in [13] (at 100 μM), under 10%; in data set [14] (at 100 μM), under 10%. The 50% inhibitory concentration (IC50) in [3] (HEK293) is over 100 µM; in data set [8] (HepG2), over 100 µM; in data set [10] (IC50 against LasB (Table 16), heteropentacycles and benzannulated heteropentacycles), 60 ± 3 µM; in data set [11] (A549) it was over 100 µM. The MIC in [6] (setting [16]) was over 100 µM.
